Assays:
[1] = test system: MDA-MB-231 breast cancer cells; test: orthotopic tumorigenesis experiment with SX-pretreated breast cancer cells; format: in vivo, mice; details: cells treated with 10 μM SX for 7 d
Procedure: (§1) Experimental method and steps: Cancer cells were treated with salmeterol xinafoate (SX) in vitro for 3-7 d, and a subcutaneous or orthotopic tumorigenesis experiment was conducted on mice.
MDA-MB-231 breast cancer cells were treated with 10 μM salmeterol xinafoate (SX) for 7 d, and cells (1×10^4/mouse) were injected into the orthotopic mammary fat pads on both sides of the body of mice in a control group and an SX treated group (5 mice/group) to conduct a tumorigenesis experiment. 8 orthotopic cancers formed at 10 injection sites in the orthotopic mammary fat pads of 5 mice in the control group, and only 6 orthotopic cancers formed at 10 injection sites in the orthotopic mammary fat pads of 5 mice in the SX treated group.
Experimental results in FIG. 4 show cancer growth curves and representative cancer photos.

brain cancer cells SF126 = test: tumor sphere formation assay of brain cancer cells; format: cell-based; details: 1 μM, 3 μM, or 10 μM, 7 d; FIG. 25
Description: (§2) As a gold standard for detecting the self-renewal capability of cancer stem cells in vitro, a tumor sphere formation assay may detect individual cancer stem cell that continuously self-renew in a conditioned medium and form tumor spheres consisting of multiple cells. This in vitro experiment is often used to test the responsiveness of clinical patients to anticancer drugs, and guide in vivo medication of the clinical patients.

[2] = test system: CT-26 colorectal cancer cells; test: subcutaneous tumorigenesis experiment with SX-pretreated colorectal cancer cells; format: in vivo, mice; details: cells treated with 10 μM SX for 7 d
Procedure: as §1
CT-26 colorectal cancer cells were treated with 10 μM salmeterol xinafoate (SX) for 7 d, and cells (1×10^5/mouse) were subcutaneously injected on both sides of the back of mice in a control group and an SX treated group (5 mice/group) to conduct a tumorigenesis experiment. 10 cancers formed subcutaneously at 10 injection sites of 5 mice in the control group, and 8 cancers formed subcutaneously at 10 injection sites of 5 mice in the SX treated group.
Experimental results in FIG. 5 show cancer growth curves and representative cancer photos.

[3] = test system: head and neck cancer cells CAL-27; test: tumor sphere formation assay of head and neck cancer cells; format: cell-based; details: 1 μM, 3 μM, or 10 μM, 7 d; FIG. 14
Description: as §2

[4] = test system: CAL-27 head and neck cancer cells; test: subcutaneous tumorigenesis experiment with SX-pretreated head and neck cancer cells; format: in vivo, mice; details: cells treated with 10 μM SX for 3 d, 1×10^6/mouse; FIG. 7; P<0.0001 vs control
Procedure: as §1
CAL-27 head and neck cancer cells were treated with 10 μM salmeterol xinafoate (SX) for 3 d, and cells (1×10^6/mouse) were subcutaneously injected on both sides of the back of mice in a control group and an SX treated group (3 mice/group) to conduct a tumorigenesis experiment.
Experimental results in FIG. 7 show cancer growth curves.

[5] = test system: prostate cancer cells PC-3, DU145, RM-1; test: tumor sphere formation assay of prostate cancer cells; format: cell-based; details: 1 μM, 3 μM, or 10 μM, 7 d; FIG. 19
Description: as §2

[6] = test system: colorectal cancer cells CT-26, SW620, HCT-15, DLD-1; test: tumor sphere formation assay of colorectal cancer cells; format: cell-based; details: 1 μM, 3 μM, or 10 μM, 7 d; FIG. 12
Description: as §2

[7] = test system: esophageal cancer cells KYSE-150; test: tumor sphere formation assay of esophageal cancer cells; format: cell-based; details: 10 μM, 7 d; FIG. 15; P<0.05
Description: as §2
According to culture conditions in Table 5, esophageal cancer cells KYSE-150 were subjected to a tumor sphere formation assay, and treated with salmeterol xinafoate (SX) at a concentration of 10 μM.

OCc1cc(C(O)CNCCCCCCOCCCCc2ccccc2)ccc1O (stereo not shown) [salmeterol xinafoate]
orthotopic cancers formed at injection sites ([1]; 1×10^4/mouse into orthotopic mammary fat pads, 10 injection sites of 5 mice, control group 8): 6 | cancer growth curves (initiation and progression) ([1]; FIG. 4, P<0.0001 vs control): inhibits the initiation and progression of orthotopic breast cancer | number of tumor spheres (self-renewal capability of cancer stem cells) (brain cancer cells SF126): inhibited the self-renewal capability of the brain cancer stem cells in a concentration dependent manner | cancers formed subcutaneously at injection sites ([2]; 1×10^5/mouse, 10 injection sites of 5 mice, control group 10): 8 | cancer growth curves (initiation and progression) ([2]; FIG. 5, P<0.0001 vs control): inhibits the initiation and progression of subcutaneous colorectal cancer | number of tumor spheres (self-renewal capability of cancer stem cells) [3]: inhibited the self-renewal capability of the head and neck cancer stem cells | cancer growth curves (initiation and progression) [4]: inhibits the initiation and progression of subcutaneous head and neck cancer | number of tumor spheres (self-renewal capability of cancer stem cells) [5]: inhibited the self-renewal capability of the prostate cancer stem cells in a concentration dependent manner | number of tumor spheres (self-renewal capability of cancer stem cells) [6]: inhibited the self-renewal capability of the colorectal cancer stem cells in a concentration dependent manner | number of tumor spheres (self-renewal capability of cancer stem cells) [7]: inhibited the self-renewal capability of the esophageal cancer stem cells

— patent US20260216103A1, “USE OF LONG-ACTING ß2AR AGONIST IN PREPARATION OF DRUGS FOR TREATING CANCERS” (HONG KONG SXMETEROL PHARMACEUTICAL CO., LIMITED, priority 2023, published 2026)
